Structures can show the parent of a compound that is named as a salt.
Tests used:
[1] = Stability to micronisation of Polymorphs (grinding in ball microniser, DRX); format: physicochemical; conditions: Retsch MM2 ball microniser, 200 mg sample, 80 vibrations/min, 15 minutes
[2] = resistance to compression and/or micronisation; format: physicochemical; conditions: polymorph A compared with polymorph B
[3] = tablets prepared with polymorph A or with polymorph B; J. Pharmaceutical & Biomedical Analysis, 1994, Vol 12, pp. 173-177; cited from earlier work
[4] = storage stability of zofenopril calcium salt samples (interconversion to polymorph B, by DRX); format: physicochemical
From the text: Determination of polymorph B in the samples of Polymoroh A : The percentage of polymorph B in samples of Polymorph A can easily be evaluated by observation of the X diffractograms (DRX). The region used for the analysis was that for 2θ ranging from 15 to 25. In this region, three peaks were evidenced, respectively I with […], II with 2θ=19.2 and III with 20θ=19.9, and the relative intensities I/III and II/III of various Polymorph A samples containing known amounts of Polymorph B (not above 30%) were measured. A regression equation was thereby obtained, which correlates the intensities of peaks I and II relating to peak III with the percentage of polymorph B present in the samples. The precision and the accuracy of the results obtainable with the above mentioned equation were good and, based on the confidence limits, the minimum amount of polymorph B detectable in polymorph A could be evaluated to be <7%. FIG. 4 reports the relationship between the above mentioned values based on the thus calculated regression equation and the observed values.

SMILES	crystalline structure after grinding, according to DRX [1]	resistance to compression and/or micronisation [2]	dissolution rate of tablets [3]	interconversion to polymorph B ([4]; samples obtained according to the process of the invention)	percentage of polymorph B after storage ([4]; stored for 3 years at 25° C. and 60% relative humidity)	percentage of polymorph B after storage ([4]; stored for 6 months at 40° C. and 75% relative humidity)
C[C@H](CSC(=O)c1ccccc1)C(=O)N1C[C@@H](Sc2ccccc2)C[C@H]1C(=O)O [polymorph A]	still keeps the crystalline structure	more resistant to compression and/or micronisation than polymorph B	could not be differentiated	–	–	–
C[C@H](CSC(=O)c1ccccc1)C(=O)N1C[C@@H](Sc2ccccc2)C[C@H]1C(=O)O [polymorph B]	completely loses its crystalline structure	–	could not be differentiated	–	–	–
C[C@H](CSC(=O)c1ccccc1)C(=O)N1C[C@@H](Sc2ccccc2)C[C@H]1C(=O)O [zofenopril calcium salt, [(4S)-(2S)-3-(benzoylthio)-2-methylpropionyl-4 (phenylthio)-L-proline] calcium salt]	–	–	–	no interconversion to polymorph B	below 7%	below 7%

Reference: patent publication US6515012B2, “Process for the preparation of zofenopril calcium salt” (Menarini Ricerche S.p.A., priority 1998, dated 2003)
